Laboratory results: BigSolDB 2.1

N#Cc1cccc([N+](=O)[O-])c1
solubility (mole fraction)
Details	278.15 K	283.15 K	288.15 K	293.15 K	298.15 K	303.15 K	308.15 K	313.15 K	318.15 K
in acetic acid	–	–	–	0.0354	0.04	0.0459	0.0525	0.0608	0.0713
in acetone	0.0789	0.0905	0.106	0.123	0.142	0.164	0.187	0.213	0.242
in acetonitrile	0.0473	0.0565	0.0682	0.0814	0.0973	0.116	0.138	0.164	0.196
in cyclohexane	–	0.000365	0.000472	0.000599	0.000768	0.00097	0.00121	0.00153	0.00193
in ethanol	0.00312	0.0038	0.00473	0.00582	0.00715	0.00873	0.0106	0.013	0.0159
in ethyl acetate	0.0353	0.044	0.0565	0.0706	0.0876	0.109	0.135	0.166	0.203
in isobutanol	0.00162	0.00207	0.00265	0.0033	0.00409	0.00504	0.00624	0.00773	0.00959
in isopropanol	0.0017	0.00215	0.00274	0.0035	0.00446	0.00565	0.00711	0.00905	0.0114
in methanol	0.0041	0.00501	0.00622	0.0076	0.00926	0.0112	0.0134	0.0162	0.0195
in n-butanol	0.00233	0.00286	0.00349	0.00428	0.00538	0.00683	0.00848	0.0104	0.0129
in n-propanol	0.0025	0.00308	0.0038	0.00475	0.00592	0.0073	0.00897	0.0111	0.0135
in toluene	0.0259	0.0304	0.0374	0.0458	0.0557	0.067	0.0813	0.0982	0.119
